Reference: patent US5622948A, “Pyrrole pyridazine and pyridazinone anti-inflammatory agents” (Syntex (U.S.A.) Inc., priority 1994, dated 1997)

Tests used:
[1] = system: adjuvant-induced arthritis; assay: adjuvant-induced arthritis in the rat; type: in vivo; details: second test
stomach PGE2 = type: in vivo, rat; details: 2-5 mg/kg
Experimental: To examine the effect of Compound (16) on prostaglandin (PG) synthesis in inflamed tissues, Compound (16) was tested in a carrageenan-induced inflammation (air-pouch model) in rats. PGE2 levels in the air-pouch exudate were measured by enzyme immunoassay in rats treated with 0.1-30 mg/kg of Compound (16). […] […].
To test the effects of Compound (16) on PG synthesis in non-inflamed tissue, PGE2 levels were measured in the stomach of rats from the above experiments. […]

[2] = system: PGE2 levels in the air-pouch exudate; assay: PGE2 in exudate of carrageenan-induced inflammation (air-pouch model) in rats; type: in vivo, rat; details: 2-5 mg/kg
stomach and intestines = details: general statement (background); cited from earlier work
[3] = physical stability / phase transformation of crystal forms of Compound (16); type: physicochemical; details: for conversion when suspended in alcohol or ethyl acetate: suspended in alcohol (Phase II: alcohol or ethyl acetate)
Description: Phase I was obtained when Compound (16) was recrystallized from methanol, ethanol, ethanol/acetic acid, acetone, ethyl acetate, ethyl acetate/acetic acid, dichloromethane, tetrahydrofuran or tetrahydrofuran/ethyl acetate.
Phase II was obtained when Compound (16) was recrystallized from toluene.
Phase III was obtained by rapid precipitation of Compound (16) from acetic acid/water.
Hydrate I, a monohydrate, was also obtained by slow recrystallization of Compound (16) from acetic acid/water.

COX I = COX I (Homo sapiens, UniProt P23219); assay: radiometric assay, COX I inhibition (human recombinant, baculovirus expressed, partially purified); type: biochemical; parameters: A 2 Kb fragment containing the coding region of COX I; made in house; host or cells: Sf9 insect cells, baculovirus (cDNA from Oxford Biomedical Research); details: radiometric assay, human recombinant baculovirus expressed enzyme; read-out: COX I IC50 (Table 2)
Experimental: (§1) Human prostaglandin G/H synthase I and II ("COX I" and "COX II") were expressed in the baculovirus expression system and purified to high levels.
(§2) As described above, human recombinant COX I and COX II were cloned and expressed in a baculovirus system. Partially purified COX I and COX II enzymes were used for screening compounds for their ability to inhibit COX I and COX II activity, as described below.
(§3) Compound (16), in 2 μl DMSO, and control samples (carrier vehicles only) were mixed with COX I or COX II samples (e.g. fractions from the chromatography columns) in polypropylene tubes and preincubated with 2 mM phenol for 5 minutes and then with 1 μM hematin for an additional 5 minutes. The 150 μl reaction mixture consisted of 50 mM Tris --HCl, pH 7.9, 2 mM EDTA, 10% glycerol, 200 μM phenol, 1 μM hematin, 1-25 μl sample and 20 μM 1-[^14 C] arachidonate (80.000-100.000 cpm/tube). After 45 seconds at room temperature, the reaction was terminated by adding 200 μl of 2N HCl and 750 μl water. An aliquot (950 μl) of the reaction mixture was loaded onto a 1 ml C~ Sep-Pak (J. T. Baker, Phillipsburg, N.J.) which had been previously washed with 2-3 ml methanol and equilibrated with 5-6 ml distilled water. Oxygenated products were quantitatively eluted with 3 ml of acetonitrile, H2 O and acetic acid (50:50:0.1, v/v) and the radioactivity in the eluate determined in a scintillation counter.
(§4) Human recombinant 10 min incubation with Compound (16)
(§5) baculovirus 45 sec incubation with 20 μM AA
(§6) partially purified Separation of radioactive products

COX II = target: T1, COX II (Homo sapiens, UniProt P35354); assay: radiometric assay, COX II inhibition (human recombinant, baculovirus expressed, partially purified); type: biochemical; parameters: A 1.8 Kb DNA fragment containing the coding region of human COX II was generated by PCR; made in house; host or cells: Sf9 insect cells, baculovirus; details: radiometric assay, human recombinant baculovirus expressed enzyme; read-out: COX II IC50 (Table 2)
T1 sequence (P35354 18-604): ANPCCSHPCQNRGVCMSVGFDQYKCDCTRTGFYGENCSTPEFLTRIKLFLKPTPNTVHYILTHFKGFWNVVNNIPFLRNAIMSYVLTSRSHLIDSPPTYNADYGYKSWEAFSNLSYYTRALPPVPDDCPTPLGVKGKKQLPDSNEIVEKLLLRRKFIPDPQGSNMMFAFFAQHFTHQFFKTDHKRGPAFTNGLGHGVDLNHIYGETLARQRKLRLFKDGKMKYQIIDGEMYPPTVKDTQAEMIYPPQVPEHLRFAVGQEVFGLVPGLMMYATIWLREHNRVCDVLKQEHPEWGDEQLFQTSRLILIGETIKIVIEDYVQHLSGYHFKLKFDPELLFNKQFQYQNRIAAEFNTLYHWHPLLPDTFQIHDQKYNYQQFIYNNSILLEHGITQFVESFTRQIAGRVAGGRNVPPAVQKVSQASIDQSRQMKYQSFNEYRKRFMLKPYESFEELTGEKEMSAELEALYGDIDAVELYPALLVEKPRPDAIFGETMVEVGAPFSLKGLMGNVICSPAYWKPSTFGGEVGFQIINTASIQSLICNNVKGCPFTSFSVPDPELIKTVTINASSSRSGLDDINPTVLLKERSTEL
Experimental: as §1, §2, §3, §4, §5, §6

COX I, sequence (P23219 24-599): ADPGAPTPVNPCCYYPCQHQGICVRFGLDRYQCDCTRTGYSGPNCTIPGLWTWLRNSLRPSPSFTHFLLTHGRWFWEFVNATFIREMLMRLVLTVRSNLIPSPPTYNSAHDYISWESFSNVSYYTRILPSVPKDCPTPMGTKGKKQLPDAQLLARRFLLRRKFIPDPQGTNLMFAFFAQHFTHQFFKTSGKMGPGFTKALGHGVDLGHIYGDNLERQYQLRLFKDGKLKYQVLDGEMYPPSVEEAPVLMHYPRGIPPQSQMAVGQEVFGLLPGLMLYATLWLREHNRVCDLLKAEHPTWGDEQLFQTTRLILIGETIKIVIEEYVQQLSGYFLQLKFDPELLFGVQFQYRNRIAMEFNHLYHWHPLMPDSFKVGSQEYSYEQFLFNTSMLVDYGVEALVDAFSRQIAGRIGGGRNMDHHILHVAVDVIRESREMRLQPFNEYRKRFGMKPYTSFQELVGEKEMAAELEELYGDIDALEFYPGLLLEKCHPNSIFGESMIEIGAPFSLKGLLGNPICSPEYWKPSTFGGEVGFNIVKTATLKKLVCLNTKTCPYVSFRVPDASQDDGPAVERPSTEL

IC50 (COX I) [µM] | IC50 (COX II) [µM] | SMILES | conversion when suspended in alcohol or ethyl acetate [3] | conversion when suspended in water [3] | other results
– | – | COc1ccc2c(c1)c(CC(=O)O)c(C)n2C(=O)c1ccc(Cl)cc1 [indomethacin, reference compound] | – | – | inhibition of adjuvant-induced arthritis ([1]; 0.3 mg/kg/day): 66%; inhibition of adjuvant-induced arthritis ([1]; 0.6 mg/kg/day): 79%; inhibition of stomach PGE2 (stomach PGE2): > 80%; inhibition of PGE2 in the exudates [2]: > 70%; corrosiveness to the stomach and intestines of rats (stomach and intestines): highly corrosive to the stomach and intestines of rats
– | – | Cc1cc(Cc2ccc(=O)[nH]n2)n(C)c1C(=O)c1ccc(Cl)cc1 [Phase III] | converted to Phase I | converted to Hydrate I | –
– | – | Cc1cc(Cc2ccc(=O)[nH]n2)n(C)c1C(=O)c1ccc(Cl)cc1 [Phase I] | – | converted to a monohydrate, Hydrate I | phase transformation on milling and micronization ([3]; milling and micronization): did not cause any phase transformation; physically stable for ([3]; unmilled (-200 μm), 40° C./75% relative humidity): at least 4 days
– | – | Cc1cc(Cc2ccc(=O)[nH]n2)n(C)c1C(=O)c1ccc(Cl)cc1 [Phase II] | converted to Phase I | converted to another hydrate, Hydrate II | –
3.2 | 0.68 | CC[C@@H](C)NC(=O)Cn1nc(Cc2cc(C)c(C(=O)c3ccc(Cl)cc3)n2C)ccc1=O [Compound 158, R--N-sec-butyl-2-{3-[5-(4-chloro-benzoyl)-1,4,-dimethyl-1H-pyrrol-2-ylmethyl]-6-oxo-6H-pyridazin-1-yl}-acetamide] | – | – | –
10 | 0.14 | Cc1cc(Cc2ccc(=O)n(Cc3c(Cl)cccc3Cl)n2)n(C)c1C(=O)c1ccc(Cl)cc1 [Compound 152, 6-[5-(4-chloro-benzoyl)-1,4,-dimethyl-1H-pyrrol-2-ylmethyl]-2-(2,6-dichlorobenzyl)-2H-pyridazin-3-one] | – | – | –
– | – | Cc1cc(Cc2ccc(=O)[nH]n2)n(C)c1C(=O)c1ccc(Cl)cc1 [Hydrate I] | can be converted back to Phase I | – | physical stability, duration ([3]; 40° C./75% relative humidity): 14 days; physical stability ([3]; 40° C./ambient relative humidity, within 11-95% relative humidity): physically stable; conversion on heating at 120° C. ([3]; 120° C.): phase conversion to another anhydrous crystal form; dehydration at temperatures below 100° C. ([3]; below 100° C., ambient conditions and 23% relative humidity): produced a metastable form that converted back to Hydrate I
> 1000 | 0.9 | Cc1ccc(C(=O)c2cc(Cl)c(Cc3ccc(=O)[nH]n3)n2C)cc1 [Compound 87, 6-[3-chloro-1-methyl-5-(4-methyl-benzoyl)-1H-pyrrol-2-ylmethyl]-2H-pyridazin-3-one] | – | – | –
